US20230263712A1, “AN ORAL CARE ANTIMICROBIAL COMPOSITION, PROCESS FOR PREPARING THE SAME AND METHOD OF USE THEREOF” (ISP INVESTMENTS LLC, priority 2020, published 2023)
Like-named read-outs stand apart in the source and are kept apart here.

Tested on: Streptococcus mutans UA159
Experiment: Checkerboard microplate synergy assay (MIC, Synergy Index by the Kull method)
Type: cell-based
Settings: for HPB Qa: MIC of compound A (HPB) when used in combination with compound B: HPB concentration in the combination with the labelled compound B; for SI index (Synergy Index = Qa/QA + Qb/QB): combination of HPB (raspberry ketone) with the labelled compound B, SI <1 synergistic
Method: The synergistic antimicrobial effect was determined using the commonly accepted method described by Kull […]. and Mayer, R. L. 1961. Applied Microbiology, 9:538-541 Brief description of the assay: Standard checkerboard approach was used to make all the dilutions. HPB (compound A) solution was prepared in DMSO and then serially diluted using a 96-well dilution plate. Automated liquid handler was then used to stamp multiple assay plates out of this dilution plate. Each well of the assay plate was then supplemented with a predetermined concentration of the second antimicrobial (compound B). The final concentration of DMSO was kept constant across the plate for each assay, not exceeding 3% (w/w). Then, S. mutans cell suspension in Todd Hewitt Broth supplemented with yeast extract (THYEB) was added to the appropriate wells of the assay plate with the final cell density being 10^6 cfu/ml. The assay plates were incubated for 48 hours at 37° C. in the atmosphere containing 5% CO2 prior to being evaluated. The lowest concentration of each compound (or a mixture of the two compounds) to inhibit visible growth was taken as the minimum inhibitory concentration (MIC). The MIC was taken as the end point of activity. End points for the combination of compound A (HPB) and compound B were then compared to the end points for each compound being used individually.

[1] = S. mutans, THYEB, 48 hours at 37° C., 5% CO2
[2] = Streptococcus mutans, UA159, S. mutans, THYEB, 48 hours at 37° C., 5% CO2, alone, read-out: Compound B QB: MIC of compound B acting alone

Question: For `N=C(NCCCCCCNC(=N)NC(=N)Nc1ccc(Cl)cc1)NC(=N)Nc1ccc(Cl)cc1.O=C(O)[C@H](O)[C@@H](O)[C@H](O)[C@H](O)CO.O=C(O)[C@H](O)[C@@H](O)[C@H](O)[C@H](O)CO` [Chlorhexidine digluconate], which “HPB Qa: MIC of compound A (HPB) when used in combination with compound B” value (shortened to “HPB Qa: MIC of compound A (HPB)”) [1] is on record?
Answer: The value was 4,000 ppm.

Question: And the “Compound B QB: MIC of compound B acting alone” value (S. mutans, THYEB, 48 hours at 37° C., 5% CO2, alone)?
Answer: Its value is 1.6 ppm.

Question: And the “Compound B Qb: MIC of compound B when used in combination with compound A (HPB)” value (shortened to “Compound B Qb: MIC of compound B … (HPB)”) [1]?
Answer: Its value is 0.4 ppm.

Question: And the “SI index (Synergy Index = Qa/QA + Qb/QB)” value (S. mutans)?
Answer: Its value is at most 0.75.

Question: `CC(=O)CCc1ccc(O)cc1` [HPB, 4-(4-hydroxyphenyl) butan-2-one] was tested. Which MIC (Streptococcus mutans, UA159, S. mutans, THYEB, 48 hours at 37° C., 5% CO2, alone, read-out: HPB QA: MIC of compound A (HPB) acting alone) did it give?
Answer: Its MIC is at least 8000 µg/mL.

Question: What does the source list for `Cc1cc(O)ccc1C(C)C` [Isopropyl Methylphenol (IPMP), 4-isopropyl-3-methyl phenol]?
Answer: HPB Qa: MIC of compound A (HPB) when used in combination with compound B [1]: 125 ppm; Compound B Qb: MIC of compound B when used in combination with compound A (HPB) [1]: 250 ppm; SI index (Synergy Index = Qa/QA + Qb/QB) (S. mutans): ≤0.5016; SI index (Synergy Index = Qa/QA + Qb/QB) (S. mutans, listed as IPMP): ≤ 0.5016; MIC [2]: 500 µg/mL

Question: How did the “HPB Qa: MIC of compound A (HPB)” value [1] turn out when `CC1CCC(C(C)C)C(O)C1` (centres unmarked) [Menthol] was run?
Answer: Its value is 4,000 ppm.

Question: What about the “Compound B Qb: MIC of compound B … (HPB)” value [1] of the same compound?
Answer: Its value is 1,000 ppm.

Question: And the MIC [2]?
Answer: The MIC was at least 4000 µg/mL.

Question: With `Cc1ccc(C(C)C)c(O)c1` [Thymol] as the compound, how does the “HPB Qa: MIC of compound A (HPB)” value [1] read?
Answer: Its value is 4,000 ppm.

Question: And the “Compound B Qb: MIC of compound B … (HPB)” value [1]?
Answer: Its value is 15.6 ppm.

Question: And the “SI index (Synergy Index = Qa/QA + Qb/QB)” value (S. mutans)?
Answer: Its value is at most 0.625.

Question: And the “SI index (Synergy Index = Qa/QA + Qb/QB)” value (S. mutans, listed as thymol)?
Answer: Its value is at most 0.625.

Question: And the MIC [2]?
Answer: The MIC was 125 µg/mL.

Question: What does the source list for `CC12CCC(CC1)C(C)(C)O2` [eucalyptol]?
Answer: MIC (alone, even when solubilized with 2% of Pluronic F-127): > 2%; Synergy with raspberry ketone (HPB) (standard synergy assay vs S. mutans): not detected
